Data published in patent publication US20240409536A1, “COMPOUNDS AND METHODS FOR MODULATING SPLICING” (REMIX THERAPEUTICS INC., priority 2021, published 2024).

How the values were obtained:
HTT mRNA = test: Gene panel canonical junction qPCR assay, HTT CJ mRNA decrease; format: cell-based, human; conditions: Homo sapiens, canonical junction qPCR, read-out: HTT IC50 (decrease in CJ mRNA levels)
Outline: (§1)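 A673 or K562 cells were treated with compound, and lysates underwent cDNA synthesis and qPCR with a CY5 5′-nuclease probe or primer spanning the canonical exon junction. ΔCt versus GAPDH, GUSB or PPIA was normalized to DMSO (2^(−ΔΔCt)), converted to percentage response and fitted four-parameter logistic for IC50.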

SMN2 mRNA = test: Gene panel canonical junction qPCR assay, SMN2 CJ mRNA decrease; format: cell-based, human; conditions: Homo sapiens, canonical junction qPCR, read-out: SMN2 IC50 (decrease in CJ mRNA levels)
Outline: as §1

MYB mRNA = test: Gene panel canonical junction qPCR assay, MYB CJ mRNA decrease; format: cell-based, human; conditions: Homo sapiens, canonical junction qPCR, read-out: MYB IC50 (decrease in CJ mRNA levels)
Outline: as §1

HiBiT-tagged MYB protein = test: HiBiT protein abundance assay, MYB (K562 HiBiT knock-in cells); format: cell-based, human; conditions: 24 hours
Outline: (§2)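 K562 cells with endogenous HiBiT knock-in tag, 10-point 3-fold dilutions (top 10 μM final, ≤0.25% DMSO), 24 h at 37 °C. Lytic Nano-Glo HiBiT luminescence, normalized to DMSO and unmodified K562 baselines; IC50 is concentration giving 50% protein abundance from four-parameter fit.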

K562 cells = test: Cell Titer Glo 2.0 cell viability assay in K562 cells; conditions: 72 hours
Target C = test: HiBiT protein abundance assay, Target C (K562 HiBiT knock-in cells); format: cell-based, human; conditions: 24 hours
Outline: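 K562 knock-in cells (10000/well, IMDM+1% FBS) treated 24 h at 37 °C with 10-point 3-fold dilutions, top final 10 μM, DMSO ≤0.25%. HiBiT lytic luminescence read; response normalized to unmodified K562 and DMSO-treated controls. IC50 interpolated at 50% abundance by four-parameter logistic fit.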

HiBiT-tagged HTT protein = test: HiBiT protein abundance assay, HTT (K562 HiBiT knock-in cells); format: cell-based, human; conditions: 24 hours
Outline: as §2

Target C mRNA = test: Gene panel canonical junction qPCR assay, Target C CJ mRNA decrease; format: cell-based; conditions: Homo sapiens, canonical junction qPCR, read-out: Target C IC50 (decrease in CJ mRNA levels)
Outline: as §1

Compound	IC50 (HTT mRNA) [µM]	IC50 (SMN2 mRNA) [µM]	IC50 (MYB mRNA) [µM]	IC50 (HiBiT-tagged MYB protein) [µM]	Viability (K562 cells)	IC50 (Target C) [µM]	IC50 (HiBiT-tagged HTT protein) [µM]	IC50 (Target C mRNA) [µM]
CNC1CCN(c2ccc(C(=O)Nc3cc(F)c4nc(C)cn4c3)c3nc(OCCOC)ccc23)C1 (stereo not drawn) [Compound 234]	1 to 10	< 0.1	0.1 to 1	< 0.1	B (B represents 100-1000 nM)	1 to 10	1 to 10	1 to 10
CN[C@@H]1CCN(c2ccc(C(=O)Nc3cc(F)c4nc(C)cn4c3)c3nnccc23)C1 [Compound 238, (R)—N-(8-fluoro-2-methylimidazo[1,2-a]pyridin-6-yl)-5-(3-(methylamino)pyrrolidin-1-yl)cinnoline-8-carboxamide]	1 to 10	< 0.1	< 0.1	< 0.1	B (B represents 100-1000 nM)	1 to 10	0.1 to 1	1 to 10
CN[C@H]1CCN(c2ccc(C(=O)Nc3cc(F)c4nc(C)cn4c3)c3nnccc23)C1 [Compound 239, (S)—N-(8-fluoro-2-methylimidazo[1,2-a]pyridin-6-yl)-5-(3-(methylamino)pyrrolidin-1-yl)cinnoline-8-carboxamide]	1 to 10	< 0.1	< 0.1	< 0.1	B (B represents 100-1000 nM)	1 to 10	0.1 to 1	1 to 10
Cc1cn2cc(NC(=O)c3ccc(N4CC[C@@H](N(C)C)C4)c4nccnc34)cc(F)c2n1 [Compound 242, 8-[(3R)-3-(dimethylamino)pyrrolidin-1-yl]-N-{8-fluoro-2-methylimidazo[1,2-a]pyridin-6-yl}quinoxaline-5-carboxamide]	> 10	< 0.1	0.1 to 1	0.1 to 1	B (B represents 100-1000 nM)	> 10	> 10	> 10
COc1cnc2c(N3CC[C@@H](N(C)C)C3)ccc(C(=O)Nc3cc(F)c4nc(C)cn4c3)c2n1 [Compound 244, 8-[(3R)-3-(dimethylamino)pyrrolidin-1-yl]-N-{8-fluoro-2-methylimidazo[1,2-a]pyridin-6-yl}-3-methoxyquinoxaline-5-carboxamide]	0.1 to 1	< 0.1	< 0.1	< 0.1	A (A represents <100 nM)	0.1 to 1	0.1 to 1	0.1 to 1
Cc1cn2cc(NC(=O)c3ccc([C@H]4CCNC4)c4nccnc34)cc(F)c2n1 [Compound 246]	1 to 10	< 0.1	0.1 to 1	0.1 to 1	B (B represents 100-1000 nM)	1 to 10	1 to 10	> 10
Cc1cn2cc(NC(=O)c3ccc(N4CCN[C@@H](C(C)C)C4)c4nccnc34)cc(F)c2n1 [Compound 250, N-{8-fluoro-2-methylimidazo[1,2-a]pyridin-6-yl}-8-[(3S)-3-isopropylpiperazin-1-yl]quinoxaline-5-carboxamide]	> 10	< 0.1	0.1 to 1	0.1 to 1	B (B represents 100-1000 nM)	> 10	> 10	> 10
Cc1cn2cc(NC(=O)c3ccc(N4CCN[C@@H](C5CC5)C4)c4nccnc34)cc(F)c2n1 [Compound 252, 8-[(3S)-3-cyclopropylpiperazin-1-yl]-N-{8-fluoro-2-methylimidazo[1,2-a]pyridin-6-yl}quinoxaline-5-carboxamide]	> 10	< 0.1	0.1 to 1	0.1 to 1	B (B represents 100-1000 nM)	1 to 10	1 to 10	> 10
Cc1cn2cc(NC(=O)c3ccc(N4CCN[C@H](C5CC5)C4)c4nccnc34)cc(F)c2n1 [Compound 253, 8-[(3R)-3-cyclopropylpiperazin-1-yl]-N-{8-fluoro-2-methylimidazo[1,2-a]pyridin-6-yl}quinoxaline-5-carboxamide]	1 to 10	< 0.1	< 0.1	< 0.1	A (A represents <100 nM)	1 to 10	1 to 10	> 10
Cc1cn2cc(NC(=O)c3ccc(N4CCN5CCOC[C@@H]5C4)c4nccnc34)cc(F)c2n1 [Compound 255, (S)—N-(8-fluoro-2-methylimidazo[1,2-a]pyridin-6-yl)-8-(hexahydropyrazino[2,1-c][1,4]oxazin-8(1H)-yl)quinoxaline-5-carboxamide]	0.1 to 1	0.1 to 1	0.1 to 1	0.1 to 1	B (B represents 100-1000 nM)	0.1 to 1	0.1 to 1	0.1 to 1
Cc1cn2cc(NC(=O)c3ccc(N4CCN5CCOC[C@H]5C4)c4nccnc34)cc(F)c2n1 [Compound 256, (R)—N-(8-fluoro-2-methylimidazo[1,2-a]pyridin-6-yl)-8-(hexahydropyrazino[2,1-c][1,4]oxazin-8(1H)-yl)quinoxaline-5-carboxamide]	1 to 10	1 to 10	1 to 10	1 to 10	C (C represents 1000-9999 nM)	1 to 10	1 to 10	1 to 10
Cc1cn2cc(NC(=O)c3ccc(N4CC(C)NC(C)C4)c4nc(C)c(C)nc34)cc(F)c2n1 (stereo not drawn) [Compound 257]	1 to 10	< 0.1	0.1 to 1	1 to 10	B (B represents 100-1000 nM)	1 to 10	1 to 10	1 to 10
Cc1cn2cc(NC(=O)c3ccc(N4CCC(NC5CC5)CC4)c4nccnc34)cc(F)c2n1 [Compound 258, 8-(4-(cyclopropylamino)piperidin-1-yl)-N-(8-fluoro-2-methylimidazo[1,2-a]pyridin-6-yl)quinoxaline-5-carboxamide]	0.1 to 1	< 0.1	0.1 to 1	< 0.1	B (B represents 100-1000 nM)	0.1 to 1	0.1 to 1	0.1 to 1
Cc1cn2cc(NC(=O)c3ccc(N4CCC(NC5CC5)CC4)c4ccnnc34)cc(F)c2n1 [Compound 259, 5-[4-(cyclopropylamino)piperidin-1-yl]-N-{8-fluoro-2-methylimidazo[1,2-a]pyridin-6-yl} cinnoline-8-carboxamide]	0.1 to 1	< 0.1	< 0.1	< 0.1	A (A represents <100 nM)	1 to 10	0.1 to 1	1 to 10
COc1nc2c(N3C[C@@H](C)N[C@@H](C)C3)ccc(C(=O)Nc3cc(F)c4nc(C)cn4c3)c2nc1C [Compound 260, 8-((3R,5S)-3,5-dimethylpiperazin-1-yl)-N-(8-fluoro-2-methylimidazo[1,2-a]pyridin-6-yl)-2-methoxy-3-methylquinoxaline-5-carboxamide; 2,2,2-trifluoroacetate]	0.1 to 1	< 0.1	0.1 to 1	< 0.1	C (C represents 1000-9999 nM)	1 to 10	1 to 10	1 to 10
